Values of other authors as cited in article PMC6304311 (Influenza and Other Respiratory Viruses, 2018).
“And” between values parts separate entries of the source, which are not always exact repeats. Identical values can stand only once. “Also recorded” adds a separate entry of the source.

Tests used:
Settings in all cases: cited from earlier work
[1] = system: Influenza A(H1N1)pdm09 H275Y‐resistant phenotype viruses
[2] = system: NA from influenza A(H1N1)pdm09 virus isolates
[3] = target: NA from influenza A(H3N2) virus isolates (Influenza A virus, UniProt V5P6L4)
[4] = system: seasonal influenza A(H1N1) viruses
influenza A(H3N2) = system: influenza A(H3N2)
[5] = target: NA from influenza A(H1N1) virus isolates (Influenza A virus, UniProt C0LLZ0)
[6] = target: NA from influenza B virus isolates (Influenza B virus, UniProt A0A1S5RAG6)
[7] = read-out: IC50, resistant phenotype reference virus

In the case of `CCOC(=O)C1=C[C@@H](OC(CC)CC)[C@H](NC(C)=O)[C@@H](N)C1` [oseltamivir], the “patients with H275Y‐resistant phenotype viruses after treatment” value [1] is listed as 2%, the “susceptibility phenotype of reference virus” value (“susceptibility phenotype” below) [2] is listed as “susceptible; also recorded: resistant” and the IC50 [2, 7] is listed as 0.0706 µM. The “susceptibility phenotype” value [3] was “susceptible; also recorded: resistant”, the IC50 [3, 7] was 0.00524 µM and the “frequency of resistance globally” value [4] was 90%. For the same molecule, the phenotype of isolates [4] was “phenotypically resistant”, the “effect of I215V NA substitution on susceptibility” value (influenza A(H3N2)) was “borderline reduction in susceptibility” and the “frequency of resistance to inhibition” value (influenza A(H3N2)) was 0.2% and 1.1%. The “susceptibility phenotype” value [5] was “susceptible; also recorded: resistant”, the IC50 [5, 7] was 0.0932 µM and the “susceptibility phenotype” value [6] was “susceptible; also recorded: resistant”.

For `CC(=O)N[C@H]1[C@H]([C@H](O)[C@H](O)CO)OC(C(=O)O)=C[C@@H]1N=C(N)N` [zanamivir], the “effect of I215V NA substitution on susceptibility” value (influenza A(H3N2)) is listed as “borderline reduction in susceptibility”.
